Experimental data reported in PubChem BioAssay AID588580 (Sanford-Burnham Center for Chemical Genomics, 2011).
pEC50: −log10 of the molar value. Activity calls are given as the source filed them.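 The calls were made as follows: active = mean EC50 of 20 µM or lower; inactive = the rest.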

Target: CHO XBP1-luciferase reporter, UPR activation, luminescence
Experiment: XBP1 luciferase reporter activation in CHO cells – cell-based, luciferase luminescence, set 2, SAR follow-up (AID 588580)

Cc1ccc(NC(=O)c2cc(-c3ccncc3)nc3ccccc23)cc1
pEC50: 4.87

O=C(Nc1ccc(F)cc1)c1cc(-c2ccncc2)nc2ccccc12
EC50: inactive

O=C(Nc1cccc(C(F)(F)F)c1)c1cc(-c2ccncc2)nc2ccccc12
EC50: > 80 µM (inactive)

O=C(Nc1ccc(C(F)(F)F)cc1)c1cc(-c2ccncc2)nc2ccccc12
pEC50: 5.66

O=C(Nc1ccc(Br)c(C(F)(F)F)c1)c1cc(-c2ccncc2)nc2ccccc12
EC50: > 80 µM (inactive)

COc1cccc(NC(=O)c2cc(-c3ccncc3)nc3ccccc23)c1
EC50: > 80 µM (inactive)

O=C(Nc1cccc(F)c1Br)c1cc(-c2ccncc2)nc2ccccc12
EC50: > 80 µM (inactive)

Cc1cc(NC(=O)c2cc(-c3ccncc3)nc3ccccc23)ccc1Cl
EC50: inactive

O=C(Nc1cccc(F)c1F)c1cc(-c2ccncc2)nc2ccccc12
EC50: > 80 µM (inactive)

Cc1cc(Br)cc(NC(=O)c2cc(-c3ccncc3)nc3ccccc23)c1
EC50: > 80 µM (inactive)

Cc1cccc(NC(=O)c2cc(-c3ccncc3)nc3ccccc23)c1
EC50: > 80 µM (inactive)

O=C(Nc1cc(F)ccc1F)c1cc(-c2ccncc2)nc2ccccc12
EC50: > 80 µM (inactive)

O=C(Nc1ccccc1Br)c1cc(-c2ccncc2)nc2ccccc12
EC50: > 80 µM (inactive)

O=C(Nc1ccc(F)c(F)c1)c1cc(-c2ccncc2)nc2ccccc12
EC50: inactive

O=C(Nc1cccc(Cl)c1)c1cc(-c2ccncc2)nc2ccccc12
EC50: > 80 µM (inactive)

O=C(Nc1ccc(Cl)cc1)c1cc(-c2ccncc2)nc2ccccc12
pEC50: 5.07

O=C(Nc1cccc(Br)c1)c1cc(-c2ccncc2)nc2ccccc12
EC50: > 80 µM (inactive)

Cc1cc(NC(=O)c2cc(-c3ccncc3)nc3ccccc23)ccc1F
EC50: > 80 µM (inactive)

O=C(Nc1cccc(F)c1)c1cc(-c2ccncc2)nc2ccccc12
EC50: inactive

Cc1cc(NC(=O)c2cc(-c3ccccc3)nc3ccccc23)ccc1Br
EC50: > 80 µM (inactive)
